Laboratory results as given in US20070037752A1, “Novel alanyl-amino peptidase inhibitors for functionally influencing different cells and treating immunological, inflammatory, neuronal, and other diseases” (priority 2003, published 2007).

molecular target: alanyl aminopeptidases (APN) (Homo sapiens, UniProt P15144); test: Inhibition of alanyl aminopeptidase enzymatic activity, fluorogenic substrate (Ala)2-rhodamine 110; type: biochemical; conditions: Table 4, starred values = ID50; read-out: ID50 APN (values marked with *)
Method: The inhibition characteristics measured are referred to as IC-50 values or ID50 values (the latter marked with “*”) for said enzyme. The enzymatic activity was determined by means of the fluorogenic substrate/product (Ala)2-rhodamine 110.

alanyl aminopeptidases (APN), sequence (P15144 whole entry, species assumed): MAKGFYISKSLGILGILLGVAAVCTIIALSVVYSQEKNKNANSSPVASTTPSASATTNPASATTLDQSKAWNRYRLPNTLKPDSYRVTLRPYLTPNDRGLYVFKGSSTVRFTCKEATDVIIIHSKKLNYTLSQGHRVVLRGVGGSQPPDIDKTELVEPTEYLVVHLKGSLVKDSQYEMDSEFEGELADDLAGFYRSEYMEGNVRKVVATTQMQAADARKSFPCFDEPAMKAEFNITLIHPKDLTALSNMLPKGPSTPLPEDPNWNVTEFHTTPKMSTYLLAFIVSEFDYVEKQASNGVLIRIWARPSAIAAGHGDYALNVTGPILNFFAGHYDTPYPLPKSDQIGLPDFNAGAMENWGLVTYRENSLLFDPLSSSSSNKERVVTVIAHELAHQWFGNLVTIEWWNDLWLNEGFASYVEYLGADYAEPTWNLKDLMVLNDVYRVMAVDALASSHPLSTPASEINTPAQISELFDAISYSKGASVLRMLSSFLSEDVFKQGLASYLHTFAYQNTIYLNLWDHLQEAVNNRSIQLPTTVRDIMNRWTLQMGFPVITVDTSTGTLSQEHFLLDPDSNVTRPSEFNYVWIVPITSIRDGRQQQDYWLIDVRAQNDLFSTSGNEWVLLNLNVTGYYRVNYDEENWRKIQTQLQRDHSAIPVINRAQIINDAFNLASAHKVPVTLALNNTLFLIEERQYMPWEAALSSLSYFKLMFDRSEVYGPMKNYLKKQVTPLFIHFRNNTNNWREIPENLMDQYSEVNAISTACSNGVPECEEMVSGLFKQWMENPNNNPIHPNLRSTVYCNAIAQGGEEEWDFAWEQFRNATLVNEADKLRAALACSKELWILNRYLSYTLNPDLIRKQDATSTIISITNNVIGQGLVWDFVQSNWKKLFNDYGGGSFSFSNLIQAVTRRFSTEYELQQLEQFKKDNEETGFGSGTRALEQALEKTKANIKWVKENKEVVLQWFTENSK

Row | IC50 | SMILES
1 | 222 µM | COc1cccc(C(=O)NCC(=O)N/N=C/c2ccc([N+](=O)[O-])o2)c1 [A4.183]
2 | 294 µM | O=C(N/N=C/c1ccco1)c1ccc(NCc2ccccc2)cc1 [A4.184]
3 | 305 µM | O=C(N/N=C/c1ccco1)c1ccc([N+](=O)[O-])cc1 [A4.185]
4 | 323 µM | C/C(=N\NC(=O)c1ccn(C)n1)c1ccco1 [A4.186]
5 | 422 µM | C/C(=N\NC(=O)COc1ccc(C)cc1[N+](=O)[O-])c1ccco1 [A4.187]

same assay, conditions: Table 5, starred values = ID50; read-out: ID50 APN (values marked with *)

Row | IC50 | SMILES
6 | 197 µM | CC(C)Oc1ccc(/C=N/CCC2(c3ccccc3)CCOC(C)(C)C2)cc1 (stereo not drawn) [A5.007]

same assay, conditions: Table 5, unstarred values; read-out: IC50APN

Row | IC50 | SMILES
7 | 3.6 µM | O=C(Nc1cccc(/N=C/c2cc(/N=N\c3ccccc3Cl)ccc2O)c1)c1ccco1 [A5.001]
8 | 8.2 µM | O=C(Nc1cccc(/N=C/c2cc(Br)cc(Br)c2O)c1)c1ccco1 [A5.003]
9 | 20 µM | CCCOc1[nH]c(/N=C/c2ccccc2)c(C#N)c1C#N [A5.004]
10 | 77.3 µM | Oc1ccc(Cl)cc1/N=C/c1ccc(-c2ccc(F)cc2)o1 [A5.005]
11 | 93.6 µM | CC1(C)CC(CC/N=C/c2ccccc2)(Cc2ccccc2)CCO1 (stereo not drawn) [A5.006]

same assay, conditions: Table 6; read-out: IC50APN

Row | IC50 | SMILES
12 | 8.4 µM | COc1ccc(C(=O)Nc2ccc(S(=O)(=O)N3CCCCC3)cc2)cc1 [A6.001]
13 | 8.4 µM | CC1CCCN(S(=O)(=O)c2ccc(NC(=O)/C=C/c3ccco3)cc2)C1 (stereo not drawn) [A6.002]
14 | 11.5 µM | O=C(CS(=O)(=O)c1ccc(Cl)cc1)NO [A6.003]
15 | 11.8 µM | NNC(=O)c1ccc(NS(=O)(=O)c2cccs2)cc1 [A6.004]
16 | 11.8 µM | Cc1ccc(S(=O)(=O)CNC(=S)c2ccc3ccccc3c2)cc1 [A6.005]
17 | 13.4 µM | N/C(=N/OS(=O)(=O)c1ccc(C(F)(F)F)cc1)C1CSCCS1 (stereo not drawn) [A6.006]
18 | 16.3 µM | O=[N+](O)CC(c1ccccc1)P(=O)(c1ccccc1)c1ccccc1 (stereo not drawn) [A6.007]
19 | 16.4 µM | Cc1ccc(S(=O)(=O)N(Cc2ccc(Cl)cc2)c2ccccc2C(=O)N/N=C/c2ccco2)cc1 [A6.008]
20 | 19.2 µM | Cc1ccccc1S(=O)(=O)Nc1cccc(C(=O)N/N=C/c2ccco2)c1 [A6.009]
21 | 22.3 µM | CCOC(=O)c1c(C)oc2c1c1c(c3ccccc32)OCN(C2CCS(=O)(=O)C2)C1 (stereo not drawn) [A6.010]
22 | 18 µM | Cc1ccc(S(=O)(=O)CNC(=S)c2ccc(Cl)c(Cl)c2)cc1 [A6.011]
23 | 21.6 µM | O=C(Nc1ccc(N=Nc2ccccc2)cc1)c1ccc(S(=O)(=O)N2CCCC2)cc1 [A6.012]
24 | 24.8 µM | Cc1ccc(/C=C/C(=O)Nc2ccc(S(=O)(=O)N3CCCC3)cc2)o1 [A6.013]
25 | 37.2 µM | CC1CCN(S(=O)(=O)c2ccc3c(c2)C(Cl)(Cl)C(=O)N3)CC1 [A6.015]
26 | 55.6 µM | O=C(CNS(=O)(=O)c1ccc2c(c1)OCCO2)N/N=C/c1ccco1 [A6.016]
27 | 69.3 µM | Cc1ccc(S(=O)(=O)N2CCC(C(=O)N/N=C/c3ccco3)CC2)cc1 [A6.017]

same assay, conditions: Table 7; read-out: IC50APN

Row | IC50 | SMILES
28 | 6 µM | CN/C=C1\C=C(c2ccccc2)OC1=S [A7.001]
29 | 6.7 µM | CCc1cccc(CC)c1NC(=S)N/N=C1\C(=O)N(CN2CC(C)CC(C)C2)c2ccccc21 (stereo not drawn) [A7.002]
30 | 11.8 µM | Cc1ccc(S(=O)(=O)CNC(=S)c2ccc3ccccc3c2)cc1 [A7.004]
31 | 12 µM | O=C(O)CSCC1NC(=S)N(c2ccccc2)C1=O (stereo not drawn) [A7.005]
32 | 12.4 µM | O=C1C(Cc2c[nH]c3ccccc23)NC(=S)N1c1ccccc1 (stereo not drawn) [A7.006]
33 | 12.9 µM | Cc1cccc(C)c1NC(=S)NC(=O)c1cccs1 [A7.007]
34 | 14.1 µM | CSCCC1NC(=S)N(Cc2ccccc2)C1=O (stereo not drawn) [A7.008]
35 | 18 µM | Cc1ccc(S(=O)(=O)CNC(=S)c2ccc(Cl)c(Cl)c2)cc1 [A7.010]
36 | 21.3 µM | O=C1C(Cc2ccc(O)cc2)NC(=S)N1C1CCCCC1 (stereo not drawn) [A7.011]
37 | 36.9 µM | O=C1C(Cc2ccc3[nH]ccc3c2)NC(=S)N1c1ccccc1 (stereo not drawn) [A7.012]

same assay, conditions: Table 8, starred values = ID50; read-out: ID50 APN (values marked with *)

Row | IC50 | SMILES
38 | 0.9 µM | CCOC(=O)c1ncn(C(=O)OC)c1N [A8.001]
39 | 48.1 µM | O=C(O)CC1S/C(=N/N=C/c2ccco2)NC1=O (stereo not drawn) [A8.031]
40 | 53.2 µM | Cc1ccc(Cn2c(SCCC(=O)O)nc3c2c(=O)[nH]c(=O)n3C)cc1 [A8.033]
41 | 79.8 µM | Cn1c(=O)c2c(ncn2CC(=O)N/N=C/C=C\c2ccco2)n(C)c1=O [A8.037]
42 | 154 µM | CCCC1NC(=S)N(c2ccccc2)C1=O (stereo not drawn) [A8.040]
43 | 231 µM | COc1ccc(C2C(C(=O)c3ccccc3)C(c3ccccc3)C(C(=O)NCc3ccc(F)cc3)N2C(=O)NC2CCCCC2)cc1 (stereo not drawn) [A8.041]

Row | SMILES | IC50
44 | Cc1cccc[n+]1OC(=O)N1CCCCC1 [A8.038] | 96.7 µM

same assay, conditions: Table 8, unstarred values; read-out: IC50APN

Row | IC50 | SMILES
45 | 3.4 µM | C/C(Cn1nnc([N+](=O)[O-])n1)=N/NC(=O)COc1ccccc1[N+](=O)[O-] [A8.002]
46 | 4.7 µM | COC(=O)C1=C(C(=O)OC)C(c2cc(Br)ccc2O)c2sc(O)nc2S1 (stereo not drawn) [A8.003]
47 | 6.7 µM | CCc1cccc(CC)c1NC(=S)N/N=C1\C(=O)N(CN2CC(C)CC(C)C2)c2ccccc21 (stereo not drawn) [A8.004]
48 | 7.3 µM | CCOC(=O)N1CCc2c(sc(NC(=O)c3ccc(F)cc3)c2C(=O)Nc2ccc(Br)cc2)C1 [A8.005]
49 | 8 µM | CC1SC(N/N=C/c2ccco2)=NC1=O (stereo not drawn) [A8.006]
50 | 8 µM | CC(C)CC1CC(=S)C(C2CCCCC2)C1=O (stereo not drawn) [A8.007]
51 | 10.8 µM | CC(C)(C)OC(=O)N/N=C\C=C\c1ccco1 [A8.008]
52 | 12.4 µM | O=C1C(Cc2c[nH]c3ccccc23)NC(=S)N1c1ccccc1 (stereo not drawn) [A8.009]
53 | 12.9 µM | Cc1cccc(C)c1NC(=S)NC(=O)c1cccs1 [A8.010]
54 | 13.5 µM | COC(=O)N/N=C(C)\C=C\c1ccco1 [A8.011]
55 | 14.1 µM | CSCCC1NC(=S)N(Cc2ccccc2)C1=O (stereo not drawn) [A8.012]
56 | 14.3 µM | Cn1c(=O)c2c(nc3sccn32)n(C)c1=O [A8.013]
57 | 14.4 µM | CN(/N=C/c1sc(=O)[nH]c1Cl)c1ccccc1 [A8.014]
58 | 14.9 µM | Cc1cccc(C)c1Nc1c(-c2ccccc2NC(=O)Nc2ccccc2)nc2c(C(=O)NCc3ccc(F)cc3)cccn12 [A8.015]
59 | 14.9 µM | O=C1C(Cc2ccc3[nH]ccc3c2)NC(=S)N1c1ccccc1 (stereo not drawn) [A8.016]
60 | 15.6 µM | CCOC(=O)CCCCC(=O)c1c(C)n(C(=O)c2ccc(N3C(=O)CCC3=O)cc2)c(=O)n1C(=O)c1ccc(N2C(=O)CCC2=O)cc1 [A8.017]
61 | 18.2 µM | Cc1cc(=O)[nH]c(N/N=C/c2ccco2)n1 [A8.018]
62 | 21.3 µM | O=C1C(Cc2ccc(O)cc2)NC(=S)N1C1CCCCC1 (stereo not drawn) [A8.019]
63 | 26.1 µM | O=C1C(Cc2ccccc2)NC(=S)N1c1ccccc1 (stereo not drawn) [A8.020]
64 | 25 µM | Cn1nc(-c2cccs2)nc2c(=O)n(C)c(=O)nc1-2 [A8.021]
65 | 26.4 µM | Cc1ccc(/C=N/NC2=NC(=O)CS2)o1 [A8.022]
66 | 22.6 µM | Cn1c(=O)[nH]c2nnc(-c3cccs3)nc2c1=O [A8.023]
67 | 28 µM | Cc1ccc(Cn2c(SCCC(=O)O)nc3c2c(=O)n(C)c(=O)n3C)cc1 [A8.025]
68 | 28.6 µM | C/C(=N\N=C1\SC(CC(=O)O)C(=O)N1c1ccccc1)c1ccco1 (stereo not drawn) [A8.026]
69 | 31.4 µM | Cc1cccc(C)c1Nc1c(-c2ccccc2NC(=O)Nc2ccc(OC(F)(F)F)cc2)nc2c(C(=O)NCC(C)C)cccn12 [A8.027]
70 | 36.9 µM | O=C1C(Cc2ccc3[nH]ccc3c2)NC(=S)N1c1ccccc1 (stereo not drawn) [A8.029]
71 | 50 µM | NC(=S)N/N=C/c1ccco1 [A8.032]
72 | 59.8 µM | CC1=NC(N)=NC(C)(C)N1c1c(Cl)cccc1Cl [A8.034]
73 | 66.6 µM | O=C1C(Cc2ccc(O)cc2)NC(=S)N1c1ccccc1 (stereo not drawn) [A8.035]
74 | 68 µM | CC(=O)C1C(c2ccc(N(C)C)cc2)C2C(=O)N(C3CCCCC3)C(=O)N2C1c1sccc1C (stereo not drawn) [A8.036]

Row | SMILES | IC50
75 | COc1cc(C)[n+](OC(=O)N(C)C)c(C)c1 [A8.030] | 42.4 µM

same assay, conditions: Table 9, starred values = ID50; read-out: ID50 APN (values marked with *)

Row | IC50 | SMILES
76 | 1.2 µM | CC1=C(C#N)C(=O)N(CCO)C(=O)/C1=C\c1ccc(-c2cc(Cl)ccc2Cl)o1 [A9.002]
77 | 2 µM | O=C1c2ccccc2-c2c1[n+]([O-])c1c([n+]2[O-])CCCC1 [A9.003]
78 | 2.7 µM | CCOC(=O)c1ccc(-c2ccc(/C=C3\C(=O)N(CCO)C(=O)C(C#N)=C3C)o2)cc1 [A9.005]

same assay, conditions: Table 9, unstarred values

Row | IC50APN | SMILES
79 | ‘very high ac- tive’, beyond measure | COC(=O)C1=C(N)N2C(=O)CSC2=C(C(=O)OC)C1 [A9.001]

same assay, conditions: Table 9, unstarred values; read-out: IC50APN

Row | IC50 | SMILES
80 | 4.7 µM | COC(=O)C1=C(C(=O)OC)C(c2cc(Br)ccc2O)c2sc(O)nc2S1 (stereo not drawn) [A9.006]
81 | 4.8 µM | COc1ccc(/C=N/NC(=O)C2=C(C)Nc3ccccc3S2)cc1Cn1nc(C)c(Br)c1C [A9.007]
82 | 5 µM | COC(=O)c1ccc(-c2ccc(/C=C3\C(=O)N(CCCO)C(=O)C(C#N)=C3C)o2)cc1 [A9.008]
83 | 6.2 µM | CC1CCN(C(=O)/C(=C\c2ccco2)NC(=O)c2ccc(Cl)cc2)CC1 [A9.009]
84 | 6.3 µM | COC(=O)c1cccc(-c2ccc(/C=C3\C(=O)N(CCO)C(=O)C(C#N)=C3C)o2)c1 [A9.010]
85 | 6.7 µM | CCc1cccc(CC)c1NC(=S)N/N=C1\C(=O)N(CN2CC(C)CC(C)C2)c2ccccc21 (stereo not drawn) [A9.011]
86 | 5.9 µM | COC(=O)C1=C(N)N2C(=O)CSC2=C(C(=O)OC(C)C)C1 [A9.012]
87 | 7.3 µM | CCOC(=O)N1CCc2c(sc(NC(=O)c3ccc(F)cc3)c2C(=O)Nc2ccc(Br)cc2)C1 [A9.013]
88 | 7.3 µM | CC(=O)NC1OCC(O)C(O)C1O (stereo not drawn) [A9.014]
89 | 8.1 µM | COc1ccc(Cl)cc1C(=O)N/C(=C/c1ccco1)C(=O)N1CC2CC(C1)c1cccc(=O)n1C2 (stereo not drawn) [A9.015]
90 | 8.9 µM | c1coc(-c2nc3cc4ccccc4cc3nc2-c2ccco2)c1 [A9.016]
91 | 8.9 µM | N#Cc1cc(N2CC3CC(C2)c2cccc(=O)n2C3)c([N+](=O)[O-])cc1C#N (stereo not drawn) [A9.017]
92 | 8.9 µM | COc1ccc2c(C)nc(Nc3nc(C)c4ccccc4c(=O)n3)nc2c1 [A9.018]
93 | 9.7 µM | CC1=C(C#N)C(=O)N(CCCO)C(=O)/C1=C\c1ccc(-c2cc(C)c(C)cc2[N+](=O)[O-])o1 [A9.019]
